# Source: US9193762B2, “Selective inhibitors of prolylcarboxypeptidase” (UNIVERSITY OF MISSISSIPPI, priority 2010, dated 2015)
# Entries after “also recorded” stand apart in the source; their conditions may differ. Where a SMILES comes first, the peptide text is derived from it. The star is where a group is joined. Cbz = O=C(OCc1ccccc1)*
# Tests used:
# [1] = biological target: carboxypeptidase A [CPA, EC 3.4.17.1] (Bos taurus, UniProt P00730); test: carboxypeptidase A inhibition; type: biochemical
# carboxypeptidase A [CPA, EC 3.4.17.1], sequence (P00730 111-419 limits assumed): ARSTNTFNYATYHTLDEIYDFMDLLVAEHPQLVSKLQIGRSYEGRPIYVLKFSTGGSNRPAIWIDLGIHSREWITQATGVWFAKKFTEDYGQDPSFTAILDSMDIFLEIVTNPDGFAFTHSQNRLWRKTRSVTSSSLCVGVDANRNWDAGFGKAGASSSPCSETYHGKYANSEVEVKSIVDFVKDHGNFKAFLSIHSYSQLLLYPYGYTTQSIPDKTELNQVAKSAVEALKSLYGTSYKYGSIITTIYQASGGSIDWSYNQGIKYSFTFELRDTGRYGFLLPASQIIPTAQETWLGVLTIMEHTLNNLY
# Excerpt: While BK exerts its vasodilatory effect through the bradykinin B2 receptors (BKB2R), des-Arg9-BK (a substrate of PRCP) mediates its effect via the selective bradykinin B1 receptors (BKB1R). […] Carboxypeptidase A (CPA) is a highly conserved protease, which is present in pancreas and the secretory granules of mast cells. Although its substrate selectivity is different than that of PRCP, both CPA and PRCP can cleave the C-terminal aromatic or aliphatic amino acids of proteins or peptides. […] The reaction mixture was incubated at 37° C. for 1 h. The reaction was stopped by the addition of 0.5 M HCl.
# α-kallikrein = α-kallikrein (Homo sapiens (Human), UniProt P03952); test: specificity: serine protease α-kallikrein; type: biochemical
# α-kallikrein, sequence (P03952 391-638): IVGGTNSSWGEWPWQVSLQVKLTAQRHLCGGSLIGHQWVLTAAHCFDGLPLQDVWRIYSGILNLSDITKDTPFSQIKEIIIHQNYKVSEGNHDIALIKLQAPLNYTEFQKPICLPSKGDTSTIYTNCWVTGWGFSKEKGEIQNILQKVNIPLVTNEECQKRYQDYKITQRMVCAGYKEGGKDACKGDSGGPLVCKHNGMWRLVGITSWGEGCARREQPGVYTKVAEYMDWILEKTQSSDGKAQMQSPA
# α-kallikrein, sequence (P03952 20-390 partner): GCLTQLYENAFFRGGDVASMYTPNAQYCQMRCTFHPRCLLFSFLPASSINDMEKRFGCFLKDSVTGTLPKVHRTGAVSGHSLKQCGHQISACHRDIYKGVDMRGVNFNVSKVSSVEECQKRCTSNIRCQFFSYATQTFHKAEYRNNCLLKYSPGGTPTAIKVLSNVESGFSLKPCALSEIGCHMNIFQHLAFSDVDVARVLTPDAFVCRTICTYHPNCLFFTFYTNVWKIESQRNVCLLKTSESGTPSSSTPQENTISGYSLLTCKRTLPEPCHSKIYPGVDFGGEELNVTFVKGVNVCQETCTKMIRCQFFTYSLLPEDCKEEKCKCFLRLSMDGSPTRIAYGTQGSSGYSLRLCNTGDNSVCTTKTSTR
# factor XIa (FXIa) = factor XIa (FXIa) (Homo sapiens (Human), UniProt P03951); test: specificity: serine protease FXIa; type: biochemical
# factor XIa (FXIa), sequence (P03951 388-625): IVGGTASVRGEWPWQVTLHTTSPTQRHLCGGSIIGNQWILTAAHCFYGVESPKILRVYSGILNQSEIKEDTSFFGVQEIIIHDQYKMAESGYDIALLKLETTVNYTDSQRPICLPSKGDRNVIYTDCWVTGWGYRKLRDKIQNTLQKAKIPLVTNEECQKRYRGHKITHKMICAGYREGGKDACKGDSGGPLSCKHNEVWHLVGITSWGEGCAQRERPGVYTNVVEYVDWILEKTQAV
# factor XIa (FXIa), sequence (P03951 19-387 partner): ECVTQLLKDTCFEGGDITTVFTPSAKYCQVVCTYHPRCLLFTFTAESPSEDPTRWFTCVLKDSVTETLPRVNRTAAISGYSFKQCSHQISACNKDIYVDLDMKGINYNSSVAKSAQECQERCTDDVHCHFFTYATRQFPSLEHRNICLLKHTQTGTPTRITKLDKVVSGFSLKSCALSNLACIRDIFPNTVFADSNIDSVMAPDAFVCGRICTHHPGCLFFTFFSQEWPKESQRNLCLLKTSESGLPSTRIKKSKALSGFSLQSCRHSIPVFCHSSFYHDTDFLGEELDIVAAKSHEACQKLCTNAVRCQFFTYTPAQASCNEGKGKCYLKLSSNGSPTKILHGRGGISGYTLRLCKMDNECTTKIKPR
# food intake of mice = test: food intake in fasted mice after i.p. injection; type: in vivo
# Method: Mice were single housed one week before the experiment. Male mice (n=6 per group; 4 months old) were then food deprived for 24 hours. […] Food intake was measured at 1 hour, 2 hours, 4 hours 8 hours and 24 hours.
# [2] = biological target: carboxypeptidase B [CPB, EC 3.4.17.2] (Sus scrofa, UniProt P09955); test: carboxypeptidase B inhibition; type: biochemical
# carboxypeptidase B [CPB, EC 3.4.17.2], sequence (P09955 111-416 limits assumed): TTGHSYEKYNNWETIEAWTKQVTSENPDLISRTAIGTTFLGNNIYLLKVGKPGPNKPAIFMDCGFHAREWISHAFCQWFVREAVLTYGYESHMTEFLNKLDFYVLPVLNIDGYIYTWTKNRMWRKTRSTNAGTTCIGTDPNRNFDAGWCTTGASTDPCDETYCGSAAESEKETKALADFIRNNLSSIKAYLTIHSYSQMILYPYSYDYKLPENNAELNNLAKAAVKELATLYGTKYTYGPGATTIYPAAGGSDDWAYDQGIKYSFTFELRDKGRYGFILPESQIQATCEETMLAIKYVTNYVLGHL
# [3] = biological target: CPN (hCPN, partially purified from plasma) (Homo sapiens (Human), UniProt P15169); test: carboxypeptidase CPN, metabolism of hippuryl-lysine; type: biochemical
# CPN (hCPN, partially purified from plasma), sequence (P15169 21-458): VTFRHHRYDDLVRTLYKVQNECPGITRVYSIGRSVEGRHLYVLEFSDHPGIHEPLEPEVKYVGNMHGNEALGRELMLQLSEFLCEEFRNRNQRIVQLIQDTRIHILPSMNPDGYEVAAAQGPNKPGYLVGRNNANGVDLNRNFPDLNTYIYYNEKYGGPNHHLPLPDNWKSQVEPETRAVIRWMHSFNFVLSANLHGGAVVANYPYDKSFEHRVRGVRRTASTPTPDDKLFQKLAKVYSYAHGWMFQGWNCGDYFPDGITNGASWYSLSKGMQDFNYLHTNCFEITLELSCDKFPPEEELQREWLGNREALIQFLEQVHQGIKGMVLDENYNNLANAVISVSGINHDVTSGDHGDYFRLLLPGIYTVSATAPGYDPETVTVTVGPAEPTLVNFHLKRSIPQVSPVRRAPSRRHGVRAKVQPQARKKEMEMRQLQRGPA
# CPN (hCPN, partially purified from plasma), sequence (P22792 22-545 partner): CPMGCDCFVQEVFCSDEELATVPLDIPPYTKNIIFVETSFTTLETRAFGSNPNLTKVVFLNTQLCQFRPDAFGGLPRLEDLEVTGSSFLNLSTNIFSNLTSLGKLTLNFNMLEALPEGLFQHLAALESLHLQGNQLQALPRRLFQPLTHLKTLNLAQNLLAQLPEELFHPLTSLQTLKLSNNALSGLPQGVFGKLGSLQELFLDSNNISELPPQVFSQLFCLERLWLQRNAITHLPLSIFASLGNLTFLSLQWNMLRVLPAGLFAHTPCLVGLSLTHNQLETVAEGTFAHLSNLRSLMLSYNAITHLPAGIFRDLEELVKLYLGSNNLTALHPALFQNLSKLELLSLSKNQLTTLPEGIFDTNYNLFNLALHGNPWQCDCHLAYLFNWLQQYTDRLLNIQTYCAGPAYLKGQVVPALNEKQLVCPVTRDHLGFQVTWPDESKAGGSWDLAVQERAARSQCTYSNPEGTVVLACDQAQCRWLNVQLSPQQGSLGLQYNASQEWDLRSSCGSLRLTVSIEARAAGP
# Excerpt: While BK exerts its vasodilatory effect through the bradykinin B2 receptors (BKB2R), des-Arg9-BK (a substrate of PRCP) mediates its effect via the selective bradykinin B1 receptors (BKB1R). […] Carboxypeptidase A (CPA) is a highly conserved protease, which is present in pancreas and the secretory granules of mast cells. Although its substrate selectivity is different than that of PRCP, both CPA and PRCP can cleave the C-terminal aromatic or aliphatic amino acids of proteins or peptides. […] All values were calculated as percentage of positive control after subtraction of background. […] Commercially available pooled normal human serum was used. The tubes were tightly covered, vortexed for 15 seconds and incubated for 60 min at 37° C. in a shaker water bath. The enzymatic reaction was stopped by addition of 250 μL of 1 M HCl solution and vortexed for 15 seconds. The blanks were stopped immediately after the addition of serum by 250 μL of 1M HCl before incubation. All samples were incubated on ice for 5 min. 1500 μL ethyl acetate was added, vortexed for 30 s and centrifuged for 10 min at 4000 g. 1 mL of the upper layer (ethyl acetate) was transferred into a 5 mL test tube and placed in a boiling water bath for 45-60 min to evaporate the ethyl acetate thoroughly, 3 mL of 1M NaCl solution was added to each tube and vortexed for 30 s. All samples were placed in water bath at 70° C. for 5 min to redissolve all the residual hippuric acid, then vortexed for 30 s. After 15 min of incubation at room temperature, the absorbance of hippuric acid was read at λ=228 nm.
# The reaction mixture was incubated at 37° C. for 1 h. The reaction was stopped by the addition of 0.5 M HCl.
# factor XIIa (FXIIa) = factor XIIa (FXIIa) (Homo sapiens (Human), UniProt P00748); test: specificity: serine protease FXIIa; type: biochemical
# factor XIIa (FXIIa), sequence (P00748 373-615): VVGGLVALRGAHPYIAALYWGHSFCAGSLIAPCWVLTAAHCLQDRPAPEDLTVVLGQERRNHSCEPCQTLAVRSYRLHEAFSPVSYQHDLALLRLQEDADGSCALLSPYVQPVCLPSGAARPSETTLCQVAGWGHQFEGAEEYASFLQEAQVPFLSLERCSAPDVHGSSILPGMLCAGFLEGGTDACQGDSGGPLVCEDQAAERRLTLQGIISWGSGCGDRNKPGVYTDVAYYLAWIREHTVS
# [4] = test system: carotid artery thrombosis in wild type C57BL/6 mice; test: FeCl3 carotid artery thrombosis model, wild type mice; conditions: 10 mg/kg IV, 3.5% FeCl3, vs PBS
# Method: (§1) C57Bl/6 WT mice and C57Bl/6 mice deficient in factor fXII (FXII^−/−), were used in these studies. The procedures were approved by the Institutional Animal Care and Use Committee of Vanderbilt University. After anesthesia with pentobarbital (50 mg/kg IP), the right common carotid artery was exposed and fitted with a Doppler flow probe (Model 0.5 VB, Transonic System, Ithaca, N.Y.). […] Flow was monitored for 30 min. Mice were sacrificed by pentobarbital overdose after conclusion of the experiment, while under anesthesia.
# CPM = CPM (Homo sapiens (Human), UniProt P14384); test: carboxypeptidase CPM, metabolism of hippuryl-lysine; type: biochemical
# CPM, sequence (P14384 18-443, species assumed): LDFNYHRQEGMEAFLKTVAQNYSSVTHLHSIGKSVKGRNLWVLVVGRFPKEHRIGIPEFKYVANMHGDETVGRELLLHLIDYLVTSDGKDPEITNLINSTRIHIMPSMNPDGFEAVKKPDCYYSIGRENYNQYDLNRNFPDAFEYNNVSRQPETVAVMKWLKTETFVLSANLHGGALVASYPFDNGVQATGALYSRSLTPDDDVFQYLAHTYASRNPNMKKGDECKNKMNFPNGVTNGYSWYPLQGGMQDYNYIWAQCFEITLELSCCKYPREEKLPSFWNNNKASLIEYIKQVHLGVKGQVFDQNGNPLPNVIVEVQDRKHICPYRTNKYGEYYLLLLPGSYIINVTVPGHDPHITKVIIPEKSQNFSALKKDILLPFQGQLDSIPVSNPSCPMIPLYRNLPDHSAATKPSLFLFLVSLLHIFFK
# HPAEC permeability = test: in vitro vascular permeability assay, HPAEC monolayer with HK/PK complex; type: cell-based, human
# Method: The effect of the inhibitors of PRCP on vascular permeability was assessed using an in vitro vascular permeability assay kit (Chemicon/Millipore, Mass.) according to the manufacturer's protocol. Briefly, collagen coating solution in 0.2×PBS, pH 7.1 was added to the inserts. After incubating for 1 h at room temperature, the inserts were hydrated with cell growth medium for 15 min and seeded with 200 μL of cell suspension (1.0×10^6 HPAEC/mL). The plate was incubated at 37° C. for 24 h until a cell monolayer was formed. The inserts were then treated with cell basal medium (negative control); 1 μg/mL LPS (positive control); 0.1 μM HK/PK complex in the absence or presence of HOE-140 (1 μM) and lisinopril (1 μM, […]) and incubated at 37° C. for 18 h. […] The fluorescence was read at an excitation wavelength of 485 nm and an emission wavelength of 528 nm using BioTek Synergy 2 Multi-Mode Microplate Reader.
# [5] = test system: carotid artery thrombosis in FXII−/− mice; test: FeCl3 carotid artery thrombosis model, FXII-deficient mice
# Method: as §1
# [6] = toxicity: 14 metabolic markers in mice; type: in vivo
# Excerpt: The blood glucose level was decreased in drug-treated mice (n=3) by 15%.
# [7] = biological target: recombinant prolylcarboxypeptidase (rPRCP) (Homo sapiens (Human), UniProt P42785); test: chromogenic enzyme assay of rPRCP with Ala-Pro-p-nitroaniline (APpNA); type: biochemical
# recombinant prolylcarboxypeptidase (rPRCP), sequence (P42785 46-496): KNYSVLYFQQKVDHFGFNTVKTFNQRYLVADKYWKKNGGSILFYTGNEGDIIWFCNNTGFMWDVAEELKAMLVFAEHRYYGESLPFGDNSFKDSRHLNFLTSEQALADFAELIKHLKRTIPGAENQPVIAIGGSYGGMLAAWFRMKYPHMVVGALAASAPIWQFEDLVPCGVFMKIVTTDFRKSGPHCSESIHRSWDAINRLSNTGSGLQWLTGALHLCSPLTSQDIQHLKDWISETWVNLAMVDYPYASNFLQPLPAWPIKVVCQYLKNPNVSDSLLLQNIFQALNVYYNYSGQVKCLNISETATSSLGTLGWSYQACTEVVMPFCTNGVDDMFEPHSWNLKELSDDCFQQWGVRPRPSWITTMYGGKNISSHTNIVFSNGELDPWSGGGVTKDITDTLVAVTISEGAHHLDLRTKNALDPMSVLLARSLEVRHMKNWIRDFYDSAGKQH
# Method: Applicants utilized two assays to evaluate the putative PRCP inhibitors; 1.) a chromogenic enzyme assay, that involved the continual monitoring [60 min] for the production of p-nitroaniline derived from rPRCP-catalyzed conversion of Ala-Pro-p-nitroaniline (APpNA) in the presence of inhibitor and; 2.) a cell-based assay measuring the PRCP-dependent PK activation on human pulmonary artery endothelial cells (HPAEC). […] The effects of the inhibitors of PRCP were determined using a previously published method^31. Briefly, rPRCP was incubated in the presence or absence of various PRCP inhibitors in HEPES-carbonated buffer containing 1 mM Ala-Pro-paranitroaniline (APpNA, a PRCP chromogenic substrate). The final volume was 100 μL and the time of incubation was 60 min. […] Generation of free p-nitroaniline from APpNA was determined by monitoring changes in absorbance at 405 nm. Assays were done a minimum of 3 times.
# [8] = test system: PRCP-dependent PK activation on human pulmonary artery endothelial cells (HPAEC)
# Method: Applicants utilized two assays to evaluate the putative PRCP inhibitors; 1.) a chromogenic enzyme assay, that involved the continual monitoring [60 min] for the production of p-nitroaniline derived from rPRCP-catalyzed conversion of Ala-Pro-p-nitroaniline (APpNA) in the presence of inhibitor and; 2.) a cell-based assay measuring the PRCP-dependent PK activation on human pulmonary artery endothelial cells (HPAEC). […] Human pulmonary artery endothelial cells (HPAEC) were purchased from Invitrogen (Carlsbad, Calif.) and were cultured as previously described.^20 The cells were grown in Dulbecco's Modified Eagle's Medium (DMEM) overnight in 96 well plates (Costar). […] Gelatin blocking buffer (1% Gelatin) was prepared by adding appropriate amount of 5% gelatin stock to HEPES-carbonated buffer as described above. In the first step, gelatin blocking buffer was used to reduce the non specific binding. As part of this step, the cells were incubated with 1% gelatin buffer for 1 hour.
# trypsin = test: specificity: serine protease trypsin; type: biochemical
# [9] = failed to inhibit at these concentrations
molecule,measurement,setting,value
"CCCCCCCCCCCCNC(=O)[C@@H]1CCCN1C(=O)[C@@H]1CCCN1.Cl [RS-33-21, (S)—N-dodecyl-1-((S)-pyrrolidine-2-carbonyl)pyrrolidine-2-carboxamide hydrochloride]",inhibition of CPA (in words),[1],not inhibited
same,concentration at which kallikrein was not inhibited,α-kallikrein; [9],> 1.0 mM
same,concentration at which FXIa was not inhibited,factor XIa (FXIa); [9],> 1.0 mM
same,time to start of attenuation of food intake,food intake of mice; i.p.,≤ 1 h
same,food intake at 1 mg/kg,food intake of mice; i.p. 1 mg/kg,"lower food intake, although the reduction was not significant at 2, 4, 8, or 24 h"
same,food intake at 10 mg/kg,"food intake of mice; i.p. 10 mg/kg, all time intervals",Significant declines in food intake
same,"food intake, dose and time dependence","food intake of mice; i.p., 1, 10 or 100 mg/kg, hydrochloride",induced appetite loss that was dose- and time-dependent; also recorded: inhibited food intake; also recorded: reduced food-intake in mice in a dose- and time-dependent fashion; also recorded: reduced food intake in mice in a dose-dependent and time-dependent manner
same,food intake at 100 mg/kg,"food intake of mice; single i.p. injection 100 mg/kg, 1-24 h, hydrochloride",Significant declines in food intake; also recorded: reduced food intake
same,inhibition of CPB (in words),[2],not inhibited
same,inhibition of CPN (in words),[3]; metabolism of hippuryl-lysine,did not inhibit
same,concentration at which FXIIa was not inhibited,factor XIIa (FXIIa); [9],> 1.0 mM
same,vessel occlusion,[4],did not prevent vessel occlusion
same,time to arterial occlusion,[4]; hydrochloride,nor prolong the time to arterial occlusion; also recorded: did not observe shortening of carotid artery occlusion times
same,inhibition of CPM (in words),CPM; metabolism of hippuryl-lysine,did not inhibit
same,reduction of cell permeability,"HPAEC permeability; 100 μM, in the presence of HK/PK (0.1 μM each)",90%
same,BK-induced permeability blocked,HPAEC permeability; concentration not given,100%
same,antithrombotic effect (in words),[5]; FXII deficient mice,evidence for an antithrombotic effect
same,mice that did not develop occlusion,"[5]; FXII−/− mice, 10 mg/kg IV, 12.5% FeCl3",4 of 6
same,decrease in blood glucose level,"[6]; drug-treated mice, n=3",15%
same,glucose levels compared with control mice (in words),"[6]; mice, Table 16",relatively low but not statistically significant
same,increase in blood amylase compared to sham animals,"[6]; mice, n=3",20%
same,"change in electrolyte levels, body water, markers of kidneys and liver","[6]; mice, within 8 h",failed to cause any significant change
"c1cnc2c(c1)ccc1cccnc12 [1,10-phenanthroline]","Ki, CPA",[1],486 ηM
same,"Ki, CPB",[2],738.5 ηM
same,IC50,[3],1000 µM
same,Ki,[3],615 µM
same,IC50,CPM,640 µM
same,Ki,CPM,394 µM
"O=C[C@@H]1CCCN1C(=O)[C@@H]1CCCN1C(=O)OCc1ccccc1 [Z-Pro-Pro-OH, 1-[1-(benzyloxycarbonyl)-L-prolyl]prolinal, reference compound] (Cbz-Pro-Pro-aldehyde)",rPRCP inhibition (in words),[7],a little effect
same,blocking of PK activation on HPAEC (in words),[8],a little effect
corn trypsin inhibitor,IC50,factor XIIa (FXIIa),0.2 µM
same,Ki,factor XIIa (FXIIa),0.12 µM
"CCOCCOCCOCCCNC(=O)[C@@H]1CCCN1C(=O)[C@@H]1CCCN1C(=O)OCc1ccccc1 [RS-33-22, (S)-benzyl-2-((S)-2-((3-(2-(2-ethoxyethoxy)ethoxy)propyl)carbamoyl)pyrrolidine-1-carbonyl) pyrrolidine-1-carboxylate]",rPRCP inhibition (in words),[7],ineffective
same,blocking of PK activation on HPAEC (in words),[8],ineffective
"soybean trypsin inhibitor: soybean trypsin inhibitor (SBTI), comparison inhibitor of kallikrein, FXIa and trypsin (protein, UniProt P01070 25-205, looked up) Trypsin inhibitor A: DFVLDNEGNPLENGGTYYILSDITAFGGIRAAPTGNERCPLTVVQSRNELDKGIGTIISSPYRIRFIAEGHPLSLKFDSFAVIMLCVGIPTEWSVVEDLPEGPAVKIGENKDAMDGWFRLERVSDDEFNNYKLVFCPQQAEDDKCGDIGISIDHDDGTRRLVVSKNKPLVVQFQKLDKESL",IC50,trypsin,0.2 µM
same,IC50,α-kallikrein,10 µM
same,IC50,factor XIa (FXIa),1 µM
